Molecular target: T1, Human DGAT1 (Homo sapiens, UniProt O75907)
T1 construct: made in house; host or cells: Pichia pastoris (printed 'Pichia pastris'), vector pPICZA, membrane fraction
T1 sequence (O75907 1-488): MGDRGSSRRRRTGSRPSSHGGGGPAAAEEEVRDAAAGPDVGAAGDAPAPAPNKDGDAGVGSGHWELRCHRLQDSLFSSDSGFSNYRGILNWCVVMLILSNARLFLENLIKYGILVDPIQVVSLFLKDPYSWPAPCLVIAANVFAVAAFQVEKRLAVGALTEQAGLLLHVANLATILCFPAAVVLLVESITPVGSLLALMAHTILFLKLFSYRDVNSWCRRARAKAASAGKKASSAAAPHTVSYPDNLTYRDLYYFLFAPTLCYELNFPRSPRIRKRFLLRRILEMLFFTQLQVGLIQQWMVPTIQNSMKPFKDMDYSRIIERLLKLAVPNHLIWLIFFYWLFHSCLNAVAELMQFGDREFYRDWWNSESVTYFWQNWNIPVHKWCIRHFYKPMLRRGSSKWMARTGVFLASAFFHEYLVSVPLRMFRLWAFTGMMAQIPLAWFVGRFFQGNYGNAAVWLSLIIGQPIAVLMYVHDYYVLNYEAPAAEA
Assay: DGAT1 Inhibitory Activity Test
Format: biochemical
Conditions: DGAT1-expressed yeast membrane fraction as enzyme source; 40 μM Dioelin, 15 μM [14C]-oleoyl-CoA; room temperature for 30 minutes
Procedure: Human DGAT1 genes were amplified by PCR using primers described below from human cDNA library (Clontech).
The amplified human DGAT1 genes were introduced into a yeast expression vector pPICZA (Invitrogen). The resultant expression plasmid was introduced into an yeast (Pichia pastris) by electroporation to produce a recombinant yeast. The recombinant yeast was cultured in the presence of 0.5% methanol for 72 hours, and the cells were crushed using glass beads in 10 mM Tris pH 7.5, 250 mM sucrose and 1 mM EDTA, followed by adjusting the membrane fraction by centrifugation to use the adjusted membrane fraction as an enzyme source.
To the reaction liquid having the following composition: 100 mM Tris pH 7.5, 100 mM MgCl2, 100 mM sucrose, 40 μM Dioelin, 15 μM [^14C]-oleoyl-CoA, 0.25 μg of test substance, DGAT1-expressed yeast membrane fraction, was added, and the mixture having a volume of 100 μl was incubated at room temperature for 30 minutes. To the reaction liquid, 100 μl of 2-propanol/heptan/H2O (80/20/2) was added, the mixture was stirred well, followed by adding 200 of heptane and further stirring the mixture. After centrifugation, the heptane layer was collected, ethanol/0.1N NaOH/H2O (50:5:45) was added, the mixture was thus stirred, followed by recentrifuging the mixture and collecting the heptane layer. After exsiccation of the resultant heptane layer, 100 μl of Microscint 0 (PerkinElmer) was added, and the radioactivity was measured with a liquid scintillation counter. The inhibitory activity was calculated from the following formula:
Inhibition rate=100−(radioactivity in case of addition of test compound−background)/(radioactivity in case of addition of no test compound−background)×100
wherein the background means the radioactivity in case of addition of no membrane fraction.

Compound	IC50 [nM]
N-(2-{[(3R)-5-(3,5-dichlorophenyl)-8-fluoro-1-methyl-2-oxo-2,3,4,5-tetrahydro-1H-1,5-benzodiazepin-3-yl]amino}-1,1-dimethyl-2-oxoethyl)-1,3-thiazol-2-carboxyamide [Example 45]	29.2
CN1C(=O)[C@H](NC(=O)C(C)(C)NC(=O)C2(C(F)(F)F)CC2)CN(c2cc(C(F)(F)F)cc(C(F)(F)F)c2)c2ccc(F)cc21 [Example 27, N-{(3R)-5-[3,5-bis(trifluoromethyl)phenyl]-8-fluoro-1-methyl-2-oxo-2,3,4,5-tetrahydro-1H-1,5-benzodiazepin-3-yl}-2-methyl-N^2-{[1-(trifluoromethyl)cyclopropyl]carbonyl}alaninamide]	16.3
Cc1cnc(C(=O)NC(C)(C)C(=O)N[C@@H]2CN(Cc3ccc(OC(F)(F)F)cc3)c3ccc(F)cc3N(C)C2=O)cn1 [Example 98, N-[2-({(3R)-8-fluoro-1-methyl-2-oxo-5-[4-(trifluoromethoxy)benzyl]-2,3,4,5-tetrahydro-1H-1,5-benzodiazepin-3-yl}amino)-1,1-dimethyl-2-oxoethyl]-5-methylpyrazin-2-carboxyamide]	1340
CN1C(=O)[C@H](NC(=O)C(C)(C)NC(=O)c2ccc(F)cc2)CN(c2ccc(OC(F)(F)F)cc2)c2ccc(F)cc21 [Example 1, 4-fluoro-N-[2-({(3R)-8-fluoro-1-methyl-2-oxo-5-[4-(trifluoromethoxy)phenyl]-2,3,4,5-tetrahydro-1H-1,5-benzodiazepin-3-yl}amino)-1,1-dimethyl-2-oxoethyl]benzamide]	166
CN1C(=O)[C@H](NC(=O)C(C)(C)NC(=O)N2CCCCC2)CN(c2ccc(OC(F)(F)F)cc2)c2ccc(F)cc21 [Example 52, N-[2-({(3R)-8-fluoro-1-methyl-2-oxo-5-[4-(trifluoromethoxy)phenyl]-2,3,4,5-tetrahydro-1H-1,5-benzodiazepin-3-yl}amino)-1,1-dimethyl-2-oxoethyl]piperidin-1-carboxyamide]	91.1
CN1C(=O)[C@H](NC(=O)C2(NC(=O)c3ccccc3)CC2)CN(Cc2cc(C(F)(F)F)cc(C(F)(F)F)c2)c2ccccc21 [Example 64, N-{1-[({(3R)-5-[3,5-bis(trifluoromethyl)benzyl]-1-methyl-2-oxo-2,3,4,5-tetrahydro-1H-1,5-benzodiazepin-3-yl}amino)carbonyl]cyclopropyl}benzamide]	47.3
CN1C(=O)[C@H](NC(=O)C(C)(C)NC(=O)c2ccc(F)cc2)CN(c2cc(Cl)cc(Cl)c2)c2cc(F)ccc21 [Example 59, N-(2-{[(3R)-5-(3,5-dichlorophenyl)-7-fluoro-1-methyl-2-oxo-2,3,4,5-tetrahydro-1H-1,5-benzodiazepin-3-yl]amino}-1,1-dimethyl-2-oxoethyl)-4-fluorobenzamide]	40.2
CN1C(=O)[C@H](NC(=O)C2(NC(=O)c3ccccc3)CC2)CN(c2ccc(OC(F)(F)F)cc2)c2ccc(F)cc21 [Example 12, N-{1-[({(3R)-8-fluoro-1-methyl-2-oxo-5-[4-(trifluoromethoxy)phenyl]-2,3,4,5-tetrahydro-1H-1,5-benzodiazepin-3-yl}amino)carbonyl]cyclopropyl}benzamide]	192
CN1C(=O)[C@H](NC(=O)C(C)(C)NC(=O)NC(C)(C)C)CN(c2cc(Cl)cc(Cl)c2)c2ccc(F)cc21 [Example 47, N^2-[(tert-butylamino)carbonyl]-N-[(3R)-5-(3,5-dichlorophenyl)-8-fluoro-1-methyl-2-oxo-2,3,4,5-tetrahydro-1H-1,5-benzodiazepin-3-yl]-2-methylalanineamide]	61.3
N-[2-({(3R)-5-[3,5-bis(trifluoromethyl)phenyl]-8-fluoro-1-methyl-2-oxo-2,3,4,5-tetrahydro-1H-1,5-benzodiazepin-3-yl}amino)-1,1-dimethyl-2-oxoethyl]-5-fluoropyridine-2-carboxyamide [Example 19]	24.1
CN1C(=O)[C@H](NC(=O)C2(NC(=O)OC(C)(C)C)CC2)CN(Cc2ccc(OC(F)(F)F)cc2)c2ccccc21 [Example 92, tert-butyl {1-[({(3R)-1-methyl-2-oxo-5-[4-(trifluoromethoxy)benzyl]-2,3,4,5-tetrahydro-1H-1,5-benzodiazepin-3-yl}amino)carbonyl]cyclopropyl}carbamate]	20.8
CN1C(=O)[C@H](NC(=O)C(C)(C)NC(=O)c2ccc(F)cc2)CN(Cc2ccc(F)c(C(F)(F)F)c2)c2ccc(F)cc21 [Example 84, 4-fluoro-N-[2-({(3R)-8-fluoro-5-[4-fluoro-3-(trifluoromethyl)benzyl]-1-methyl-2-oxo-2,3,4,5-tetrahydro-1H-1,5-benzodiazepin-3-yl}amino)-1,1-dimethyl-2-oxoethyl]benzamide]	140
CN1C(=O)[C@H](NC(=O)C(C)(C)NC(=O)c2ncco2)CN(Cc2ccc(OC(F)(F)F)cc2)c2ccc(F)cc21 [Example 100, N-[2-({(3R)-8-fluoro-1-methyl-2-oxo-5-[4-(trifluoromethoxy)benzyl]-2,3,4,5-tetrahydro-1H-1,5-benzodiazepin-3-yl}amino)-1,1-dimethyl-2-oxoethyl]-1,3-oxazol-2-carboxyamide]	2230
